Assay results published in PMC6270778, “Novel Cinnamic Acid Derivatives as Antioxidant and Anticancer Agents: Design, Synthesis and Modeling Studies” (Molecules, 2014).
“And” between values parts separate entries of the source, which are not always exact repeats. Equal entries are not always repeated. Marks after values point to notes of the source that are not given here.

Assays:
[1] = Determination of RM values by reversed phase TLC (RPTLC); type: physicochemical; conditions: CH3OH:H2O:CH3COOH (77:23:0.1), average of at least 10 measurements
Experimental: Lipophilicity represents a significant physicochemical property for the absorption, distribution, metabolism and excretion of drugs (ADME properties). In this study the experimentally lipophilicity as RM values is measured by the reverse-phase thin layer chromatography (RPTLC), a reliable, fast and convenient method. The obtained values were compared with the corresponding log P values in n-octanol-buffer estimated by ClogP [33, 34]. It is well known that lipophilicity plays an important role at the ADME properties. In the present study additionally, it influences the radical scavenging property (i.e., in an aqueous phase) or the chain-breaking antioxidant activity (i.e., in biological membranes).
Reversed phase TLC (RPTLC) was studied using silica gel plates saturated with 55% (v/v) liquid paraffin in light petroleum ether and methanol/water mixture (77/23, v/v) containing 0.1% of acetic acid was used as a mobile phase. Spots were detected under UV light or by iodine vapours. RM values were determined by the corresponding Rf values (from ten individual measurements) using the equation RM = log [(1/Rf) − 1] [23, 24, 25].

[2] = Superoxide radical scavenging activity (non-enzymatic, PMS/NADH, NBT method); conditions: 0.1 mM; no = no action under the used experimental conditions
Experimental: The superoxide anion radical (O2^−·) is less toxic than the hydroxyl radical, but still being one of the most known toxic ROS. Two different experimental assays are followed for the determination of superoxide anion radical scavenging activity: (i) one involves an enzymatic production of superoxide anions and (ii) the other is supported by a non- enzymatic procedure. Herein the test is performed at 0.1 mM concentration, generating superoxide anion radicals by a non-enzymatically assay (Table 3). Compound 1i presented the highest activity, followed by compound 1ii (75% and 50%, respectively).
Superoxide radicals were produced non-enzymatically by mixing PMS, NADH and air–oxygen. The nitroblue tetrazolium method was used for the estimation of the produced radicals. The reaction mixture containing compounds (0.1 mM), 3 μM PMS, 78 μM NADH, and 25 μM NBT in 19 μM phosphate buffer pH 7.4 was incubated for 2 min at room temperature. The acrylic acids were preincubated for 2 min before adding NADH (Table 4) and the absorption was recorded at 560 nm.

[3] = ABTS+ decolorization assay; conditions: 0.1 mM
Experimental: The ABTS^•+ is derived from the oxidation of ABTS by potassium persulfate. It is a decolorization assay. The addition of electron-donating antioxidants leads to ABTS^•+ reduction. The chemistry taking place involves the direct generation of the ABTS^•+ with no involvement of an intermediary radical.
In this assay, ethanol is used for the dilution of the ABTS^+• solution. ABTS is dissolved in water to a 7 mM and reacts with 2.45 mM […] to produce the ABTS radical cation (ABTS^+•) by allowing the mixture to stand in the dark at room temperature for 12–16 h before use. Ten μL of diluted ABTS^+• solution (734 nm) is added to 10 μL of antioxidant compounds or Trolox standards (final concentration 0–0.1 mM) in ethanol and the absorbance is measured at 30 °C exactly 1 min after the initial mixing (Table 3).

MDA-MB-231 (breast) = assay: SRB cytotoxicity assay, MDA-MB-231; type: cell-based; conditions: Homo sapiens, 50% growth inhibition, 48 h exposure
Experimental: (§1) Human cancer cell lines used as targets were HT-29 (colon), A-549 (lung), OAW-42 (ovarian), MDA-MB-231 (breast), HeLa (immortal cells from cervical cancer). All cells were obtained from the American Type Culture Collection (ATCC). Cells were routinely grown as monolayer cell cultures in T-75 flasks (Costar) in an atmosphere containing 5% CO2 in air and 100% relative humidity at 37 °C and subcultured twice a week, restricting the total number of cell passages below 20. The culture medium used was Dulbecco’s modified Eagle’s medium (DMEM, Gibco, Grand Island, NY, USA) supplemented with 10% fetal bovine serum (Gibco), 2 mM glutamine (Sigma), 100 μg/mL streptomycin and 100 IU/mL penicillin.
(§2) Cell passages were carried out by detaching adherent, logarithmically growing cells after addition of 2–3 mL of a mixture of 0.05% solution of trypsin (Gibco, 1:250) in phosphate-buffered saline (PBS) with 0.02% EDTA and incubation for 3–5 min at 37 °C. For the experiments, cells were plated (100 μL containing 10,000 cells/well) in 96-well flat-bottom microplates microplates (Costar-Corning, Acton, MA 01720, USA) so that untreated cells were in exponential growth phase at the time of cytotoxicity evaluation. Cells were left for 24 h at 37 °C to resume exponential growth and stabilization and afterwards exposed to tested agents for 48 h by the addition of an equal volume (100 μL) of either complete culture medium (control wells), or twice the final drug concentrations diluted in complete culture medium (test wells). Drug cytotoxicity was measured by means of the SRB colorimetric assay estimating the survival fractions (SF) as the percent of control (untreated cells) absorbance. The SRB assay was carried out as previously described and modified by our group. In brief, culture medium was aspirated prior to fixation using a microplate-multiwash device (Tri-Continent Scientific, Inc., Grass Valley, CA, USA) and 50 μL of 10% cold (4 °C) trichloroacetic acid (TCA) were gently added to the wells. Microplates were left for 30 min at 4 °C, washed five times with deionized water and left to dry at room temperature for at least 24 h. Subsequently, 70 μL of 0.4% (w/v) sulforhodamine B (Sigma) in 1% acetic acid solution were added to each well and left at room temperature for 20 min. SRB was removed and the plates were washed five times with 1% acetic acid before air drying. Bound SRB was solubilized with 200 μL of 10 mM unbuffered Tris-base solution and plates were left on a plate shaker for at least 10 min. Absorbance was read in a 96-well plate reader at 492 nm subtracting the background measurement at 620 nm. The test optical density (OD) value was defined as the absorbance of each individual well, minus the blank value (“blank” is the mean optical density of the background control wells, n = 8). Mean values and the coefficient of variation (CV) from six replicate wells were calculated automatically. Results were expressed as the “survival fraction” (SF), as shown below.
(§3) For each tested compound a dose-effect curve was produced. Sextuplicate determinations gave a CV (Standard Deviation/mean %) of much less than 10%, resulting in standard error (SE) which was very low in all cases. The data showing inhibition of cellular growth are expressed as the fraction of cells that remains unaffected (fu) (survival fraction, SF), which is derived from the following equation: fu = ODx/ODc where ODx and ODc represent the test and the control optical density, respectively.

[4] = system: HeLa (immortal cells from cervical cancer); assay: SRB cytotoxicity assay, HeLa; type: cell-based; conditions: Homo sapiens, 50% growth inhibition, 48 h exposure
Experimental: as §1, §2, §3

SMILES	RM (±SD) [1]	O2−· (%) (±SD) [2]	ABTS+· (%) (±SD) [3]	IC50 (MDA-MB-231 (breast)) [µM]	IC50 [4] [µM]
N#Cc1ccc(C=C(C(=O)O)c2ccccc2)cc1 [Compound 1i, 3-(4-Cyanophenyl)-2-phenylacrylic acid]	−0.895 (0.004) ^e	75% and 75 ± 1.0%	26 ± 0.4%	> 240	> 240
N#Cc1ccc(C=CC(=O)O)cc1 [Compound 1ii, 3-(4-Cyanophenyl)acrylic acid]	−0.972 (0.032) ^e	50% and 50 ± 0.5%	47.4% and 47 ± 0.8%	> 240	> 240
O=C(O)C(=CC=Cc1ccc([N+](=O)[O-])cc1)c1ccccc1 [Compound 2i, 5-(4-Nitrophenyl)-2-phenylpenta-2,4-dienoic acid]	−0.706 (0.062) ^e	no	26 ± 0.5%	199 ± 1.9	118 ± 1.4
O=C(O)C=CC=Cc1ccc([N+](=O)[O-])cc1 [Compound 2ii, 5-(4-Nitrophenyl)penta-2,4-dienoic acid]	−0.868 (0.019) ^e	no	35 ± 0.9%	> 240	240 ± 1.6
O=C(O)C(=CC=Cc1ccccc1)c1ccccc1 [Compound 3i, 2,5-Diphenylpenta-2,4-dienoic acid]	0.987 (0.018) ^e	no	26 ± 0.8%	> 240	> 240
O=C(O)C=CC=Cc1ccccc1 [Compound 3ii, 5-Phenylpenta-2,4-dienoic acid]	−0.893 (0.002) ^e	no	31 ± 1.1%	> 240	> 240
O=C(O)C(=CC(Br)=Cc1ccccc1)c1ccccc1 [Compound 4i, 4-Bromo-2,5-diphenylpenta-2,4-dienoic acid]	0.566 (0.001) ^e	no	24 ± 0.5%	250 ± 1.2	80 ± 0.9
O=C(O)C=CC(Br)=Cc1ccccc1 [Compound 4ii, 4-Bromo-5-phenylpenta-2,4-dienoic acid]	−0.847 (0.044) ^e	no	26 ± 0.4%	47.5 ± 0.7	30 ± 0.4
